Measured values taken from US20260215428A1, “WEED CONTROL METHOD” (SYNGENTA CROP PROTECTION AG, priority 2023, published 2026).

Columns and labels:
[1] = tested on: Eleusine indica; assay: Glasshouse post-emergence test, visual damage, Tables B1-2 and B1-3; format: in vivo; settings: 14 days after application
Description: Seeds of a variety of test species are sown in standard soil in pots. For each treatment, three replicate pots containing 10-15 plants per one-inch pot were sprayed at the 2-3 leaf stage. […] The test plants are then grown in a glasshouse under controlled conditions in a glasshouse (at 24/16° C., day/night; 14 hours light; 65% humidity) and watered twice daily. Plants were assessed for visual damage compared to the untreated control 14 days after application (0=0% damage; 100=100% damage).

[2] = tested on: Digitaria insularis; assay: Further glasshouse test versus other ACCase-inhibiting herbicides, Table B2-3; format: in vivo; settings: 21 days after application
Excerpt: Further tests were employed to test the efficacy of a compound of Formula I versus other ACCase-inhibiting herbicides. The five main targets were Lolium multiflorum, Eleusine indica, Digitaria insularis, Sorghum halepense and Echinochloa crus-galli. Collectively, the populations contained all the major target-site resistance mutations affecting ACCase herbicides. Two L. multiflorum (LM-NTSR-1 and LM-NTSR-2) and one E. crus-galli (ECG-NTSR-1) populations were characterised exclusively by non-target-site resistance (“NTSR”). The target-site resistant L. multiflorum and E. indication populations were 100% homozygous for different ACCase mutations whilst the D. insularis, S. halepense and E. crus-galli samples contained a mixture of homozygous wild and mutant individuals at different genotypic frequencies. Additional underlying NTSR cannot be ruled out in the populations characterised by target-site resistance.
Around 50 seeds of each of the 24 weed populations were sown in 12-cm pots containing a mixture of peat and compost in a 1:1 ratio. The pots were watered, fertilised and kept in controlled glasshouse conditions set at 24° C./16 hr day, 18° C. night, 65% relative humidity, and a photon flux density of approximately 250 μmol quanta m^−2 s^−1 for Lolium multiflorum. The E. indica, D. insularis, S. halepense and E. crus-galli plants were kept in a separate glasshouse bay characterised by a 17 H photoperiod of 180 μmol m^−2 s^−1 with temperatures of 25° C. day and 19° C. night and 65% relative humidity. When the plants were at the two to four-leaf stage, they were treated with the various ACCase-inhibiting herbicides at 0, 15, 30, 60, 120 and 240 g ai ha^−1 in a spray cabinet mounted with a single mobile Teejet flat fan nozzle (11002VS) calibrated to deliver 200 L ha^−1 at 200 kPa. The L. multiflorum populations were treated by a compound of Formula Ic, clodinafop-propargyl, pinoxaden, cycloxydim and clethodim and the warm season grass weeds E. indica, D. insularis, S. halepense and E. crus-galli were sprayed with a Compound Ic and the commonly employed haloxyfop-methyl and clethodim. Three replicate pots were used per population. Plants were assessed for visual damage compared to the untreated control 21 days after application (0=0% damage; 100=100% damage).

[3] = Table B1-2, biotype 87% I1781L (heterozygous), 15 g/ha
[4] = Table B1-2, biotype 87% I1781L (heterozygous), 30 g/ha
[5] = Table B1-2, biotype 87% I1781L (heterozygous), 60 g/ha
[6] = Table B1-2, biotype 87% I1781L (heterozygous), 120 g/ha
[7] = Table B1-2, biotype D2078G + W2027C (heterozygous), first entry, 15 g/ha
[8] = Table B1-2, biotype D2078G + W2027C (heterozygous), first entry, 30 g/ha
[9] = Table B1-2, biotype D2078G + W2027C (heterozygous), first entry, 60 g/ha
[10] = Table B1-2, biotype D2078G + W2027C (heterozygous), first entry, 120 g/ha
[11] = Table B1-2, biotype D2078G + W2027C (heterozygous), second entry, 15 g/ha
[12] = Table B1-2, biotype D2078G + W2027C (heterozygous), second entry, 30 g/ha
[13] = Table B1-2, biotype D2078G + W2027C (heterozygous), second entry, 60 g/ha
[14] = Table B1-2, biotype D2078G + W2027C (heterozygous), second entry, 120 g/ha
[15] = Table B1-2, biotype I2041N (heterozygous), 15 g/ha
[16] = Table B1-2, biotype I2041N (heterozygous), 30 g/ha
[17] = Table B1-2, biotype I2041N (heterozygous), 60 g/ha
[18] = Table B1-2, biotype I2041N (heterozygous), 120 g/ha
[19] = Table B1-2, biotype NTSR (non-target site resistance), 1 g/ha
[20] = Table B1-2, biotype NTSR (non-target site resistance), 2 g/ha
[21] = Table B1-2, biotype NTSR (non-target site resistance), 4 g/ha
[22] = Table B1-2, biotype NTSR (non-target site resistance), 8 g/ha
[23] = Table B1-2, biotype Sensitive, 15 g/ha
[24] = Table B1-2, biotype Sensitive, 30 g/ha
[25] = Table B1-2, biotype Sensitive, 60 g/ha
[26] = Table B1-2, biotype Sensitive, 120 g/ha
[27] = Table B1-3, Pop1 (mix of sensitive, D2078G and G2096A biotypes), 15 g/ha
[28] = Table B1-3, Pop1 (mix of sensitive, D2078G and G2096A biotypes), 30 g/ha
[29] = Table B1-3, Pop1 (mix of sensitive, D2078G and G2096A biotypes), 60 g/ha
[30] = Table B1-3, Pop1 (mix of sensitive, D2078G and G2096A biotypes), 120 g/ha
[31] = Table B1-3, Pop2 (mix of sensitive, D2078G and G2096A biotypes), 15 g/ha
[32] = Table B1-3, Pop2 (mix of sensitive, D2078G and G2096A biotypes), 30 g/ha
[33] = Table B1-3, Pop2 (mix of sensitive, D2078G and G2096A biotypes), 60 g/ha
[34] = Table B1-3, Pop2 (mix of sensitive, D2078G and G2096A biotypes), 120 g/ha
[35] = Table B1-3, biotype Sensitive, 15 g/ha
[36] = Table B1-3, biotype Sensitive, 30 g/ha
[37] = Table B1-3, biotype Sensitive, 60 g/ha
[38] = Table B1-3, biotype Sensitive, 120 g/ha

Measured: visual damage

CC#Cc1ccc(C2=C(OC(=O)OC)C3CCC(C3)C2=O)c(OC)c1 (centres unmarked) [Compound Ic]
70%: [1]; [15]
83%: [1]; [11]
98%: [1]; [27]
87%: [1]; [7]
60%: [1]; [21]
40%: [1]; [20]
97%: [1]; [3]
86%: [1]; [31]
100%: [1]; [4] | [1]; [5] | [1]; [6] | [1]; [8] | [1]; [9] | [1]; [10] | [1]; [12] | [1]; [13] | [1]; [14] | [1]; [16] | [1]; [17] | [1]; [18] | [1]; [23] | [1]; [24] | [1]; [25] | [1]; [26] | [1]; [28] | [1]; [29] | [1]; [30] | [1]; [32] | [1]; [33] | [1]; [34] | [1]; [35] | [1]; [36] | [1]; [37] | [1]; [38] | [2]; biotype Sensitive, 15 g/ha | [2]; biotype Sensitive, 30 g/ha | [2]; biotype Sensitive, 60 g/ha | [2]; biotype Sensitive, 120 g/ha | [2]; biotype Sensitive, 240 g/ha | [2]; biotype W2027C, 15 g/ha | [2]; biotype W2027C, 30 g/ha | [2]; biotype W2027C, 60 g/ha | [2]; biotype W2027C, 120 g/ha | [2]; biotype W2027C, 240 g/ha
73%: [1]; [22]
20%: [1]; [19]

CCSC(C)CC1CC(=O)C(/C(CC)=N/OC/C=C/Cl)=C(O)C1 (centres unmarked) [Clethodim, clethodim]
60%: [1]; [8]
33%: [1]; [20] | [1]; [28] | [1]; [32]
93%: [1]; [13]
87%: [1]; [23]
67%: [1]; [12]
77%: [1]; [4] | [1]; [22] | [1]; [34]
47%: [1]; [29]
43%: [1]; [21]
0%: [1]; [19]
100%: [1]; [5] | [1]; [6] | [1]; [14] | [1]; [16] | [1]; [17] | [1]; [18] | [1]; [24] | [1]; [25] | [1]; [26] | [1]; [35] | [1]; [36] | [1]; [37] | [1]; [38] | [2]; biotype Sensitive, 15 g/ha | [2]; biotype Sensitive, 30 g/ha | [2]; biotype Sensitive, 60 g/ha | [2]; biotype Sensitive, 120 g/ha | [2]; biotype Sensitive, 240 g/ha | [2]; biotype W2027C, 30 g/ha | [2]; biotype W2027C, 60 g/ha | [2]; biotype W2027C, 120 g/ha | [2]; biotype W2027C, 240 g/ha
76%: [1]; [33]
78%: [2]; biotype W2027C, 15 g/ha
70%: [1]; [9]
63%: [1]; [11] | [1]; [30]
80%: [1]; [3] | [1]; [10]
10%: [1]; [27] | [1]; [31]
82%: [1]; [15]
50%: [1]; [7]
